Laboratory results reported in US12398115B2, “Chrysophaentin analogs and use thereof” (Vanderbilt University, priority 2019, dated 2025).
In brackets after ≈: the same amount, converted by molar mass. Entries after “also recorded” stand apart in the source; their conditions may differ. Where two headings read alike, the source gives them in different places.

What was measured:
[1] = system: B. subtilis (PY79 WT) peptidoglycan synthesis; experiment: HADA (FDAA) incorporation microscopy assay, peptidoglycan synthesis; type: cell-based, Bacillus subtilis; settings: for inhibition of peptidoglycan synthesis (FDAA incorporation): B. subtilis, FIGS. 7B and 7C
Method: HADA was synthesized according to the reported protocols. Exponentially growing B. subtilis (PY79 WT) cells for the experiments were prepared as described above. […] After a 5-minute incubation at 37° C., HADA stock solution (100 mM) was directly added to the cultures to a final concentration of 0.5 mM. The cultures were then incubated in a 37° C. shaker for 30 minutes. Cell fixation was then carried out by directly adding 0.7 ml 100% ethanol to the cultures, following 1-hour incubation on ice-bath. The fixed cells were collected using centrifuge (9000 g, 3 minutes), washed with 1×PBS twice, and then resuspended into 1×PBS. The cells were imaged using Nikon Ti-E microscope. HADA signal was detected using DAPI filter set (Excitation 395/25 nm; emission 435/26 nm). HADA intensity was analyzed using ImageJ and MicrobeJ plug-in.

[2] = system: Bacillus subtilis (PY79 WT); experiment: Cell lengthening assay; type: cell-based; settings: for cell lengthening: B. Subtilis; for cell lengthening phenotype: B. subtilis, FIG. 7A, concentration not given
Method: Bacillus subtilis (PY79 WT, lab stock) were inoculated from an overnight plate culture (single colony) to 3 ml LB in 15 ml culture tubes. The cultures were incubated in a 37° C. shaker until OD600 reached 0.2. The cultures were then diluted with fresh LB to OD600 0.05, followed by another round of incubation to OD600 0.2. At this point, cells have reached exponentially growing states and were used for experiments. […] The cultures were incubated at a 37° C. shaker for 40 minutes, followed by direct addition of 0.7 ml 100% ethanol (70% final ethanol concentration) and then incubation on ice-bath for 1 hour. The fixed cells were imaged using a Nikon Ti-E inverted microscope equipped with a 1.4NA Plan Apo 60X oil objective and Andor iXon EMCCD camera. Cell images were captured under phase-to-contrast channel. Cell length was analyzed using ImageJ and MicrobeJ plug-in.

[3] = system: FtsZ/FtsA/PBP2B localization in B. subtilis; experiment: Imaging of fluorescently labeled FtsZ, FtsA and PBP2B (mNeonGreen); type: cell-based, Bacillus subtilis; settings: for localization of FtsZ: B. Subtilis, concentration not given; for localization of FtsZ, FtsA and PBP2B: B. subtilis, FIG. 7D; for localization of fluorescently labeled FtsZ (mNeonG): 10 μM (5×MIC), high-resolution microscopy
Method: B. subtilis strains with fluorescent protein fusion were made (FtsZ-mNeonGreen: bAB185, FtsA-mNeonGreen: bAB167, PBP2B-mNeonGreen: bAB109). Exponentially growing cells for the experiments were prepared as described above. Antibiotic stock solutions were added to 0.3 ml exponentially growing cell cultures to a final concentration of 5×MIC. The cells were incubated at 37° C. for 5 minutes and then immediately imaged using the Ti-E microscope without fixation. mNeonGreen signal was detected using FITC filter set (Excitation 470/24 nm; emission 510/40 nm). Image processing was performed in ImageJ. Images were scaled without interpolation, cropped and rotated. Linear adjustment was performed to optimize contrast and brightness of the images. All the images from the same experiment were processed in the same way in order to ensure fair comparison.

[4] = system: Gram-positive pathogens; experiment: Comparison of bacterial growth inhibition across panel; type: cell-based; settings: for potency in inhibiting bacterial growth relative to natural C-ring isomers VU0849855 and VU0848355: FIGS. 5A-5C
Method: (§1) MICs for all compounds were determined using the CLSI guidelines on the test strains. Solutions of each compound were prepared by dissolution in DMSO (Sigma Aldrich, St. Louis MO) at a concentration of 10-20 mg mL^−1. […] Stock solutions were added to Mueller-Hinton II broth and serial two-fold dilutions were prepared in a 96-well microtiter plate (50 μL per well). Fifty microliters (50 μL) of inoculum containing 1×10^6 CFU mL^−1 for E. coli, S. aureus, or MRSA, or 2×10^6 CFU mL^−1 for E. faecalis or VRE were added to the wells. Plates were covered with a sterile membrane, placed in a plate reader, and agitated for 2 min to mix the contents of the wells. Plates were incubated at 37° C. for 16 h. Wells containing 4% DMSO or gentamycin served as negative and positive controls. […] Each assay was performed in triplicate and two independent experiments were carried out on separate days.
The bacterial growth inhibition of synthetic 9-dechlorochrysophaentins compared favorably to chrysophaentin A when evaluated across a panel of Gram-positive pathogens (Table 1).

[5] = system: S. aureus ATCC 25293; experiment: Agar diffusion assay; type: cell-based, Staphylococcus aureus
Method: (§2) VU0848355 and VU0848354 were evaluated for growth inhibition against S. aureus and inhibition of GTPase activity against S. aureus FtsZ using a biochemical assay (FIGS. 6A-6C).

[6] = target: T1, S. aureus FtsZ (Staphylococcus aureus, UniProt P0A031); experiment: Biochemical GTPase-FtsZ inhibition assay
T1 sequence (P0A031 1-390): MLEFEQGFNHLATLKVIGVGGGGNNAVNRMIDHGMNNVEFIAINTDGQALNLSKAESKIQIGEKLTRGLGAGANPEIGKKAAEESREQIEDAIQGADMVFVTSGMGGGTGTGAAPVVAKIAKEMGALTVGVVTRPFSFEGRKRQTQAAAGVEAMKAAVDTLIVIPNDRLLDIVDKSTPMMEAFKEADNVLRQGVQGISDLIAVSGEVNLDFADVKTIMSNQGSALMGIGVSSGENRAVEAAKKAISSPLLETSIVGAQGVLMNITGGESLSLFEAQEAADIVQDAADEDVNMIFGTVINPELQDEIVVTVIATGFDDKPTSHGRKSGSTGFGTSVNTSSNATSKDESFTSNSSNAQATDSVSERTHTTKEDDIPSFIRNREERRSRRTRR
Method: as §2

[7] = system: S. aureus ATCC 25293; experiment: Microbroth dilution growth inhibition; type: cell-based; settings: Staphylococcus aureus, ATCC25293; S. aureus ATCC 25293, microbroth dilution
Method: as §2

[8] = system: B. Subtilis; experiment: Time-lapse microscopy of FtsZ motion; type: cell-based, Bacillus subtilis; settings: 5×MIC
Method: Time-lapse microscopy was employed to monitor the dynamics of FtsZ motion before and after treatment by these compounds. FtsZ movement drives the septal peptidoglycan synthesis machinery in B. subtilis. The movement is carried out by a “treadmilling process” where FtsZ monomer polymerizes at one end and disassembles at the other. FtsZ polymerization is triggered by binding to GTP while its disassembly is catalyzed by GTP hydrolysis to GDP.

[9] = system: B. Subtilis; experiment: Minimum inhibitory concentration; type: cell-based; settings: Bacillus subtilis; read-out: MIC50 B. Subtifis
[10] = system: MRSA, methicillin-resistant S. aureus (ATCC 43300); experiment: Minimum inhibitory concentration, broth microdilution (CLSI); type: cell-based, Staphylococcus aureus; settings: for MIC50: Staphylococcus aureus
Source text: (§3) Chemicals-FtsZ inhibitor PC190723 and ampicllin were purchased from Millipore Sigma Aldrich (St. Louis, MO). Chrysophaentin A was obtained from a 2017 collection of the marine alga C. taylorii collected in the U.S. Virgin Islands (Permit VIIS-2017-SCI-0034) and isolated as described previously. All bacterial strains used for drug susceptibility testing were obtained from the American Type Culture Collection (Manassas, VA) and included Escherichia coli (ATCC 25922), Enterococcus faecalis (ATCC 29212), vancomycin-resistant E. faecalis (VRE, ATCC 51299), Staphylococcus aureus (ATCC 25913), and methicillin-resistant S. aureus (MRSA, ATCC 43300). Strains were maintained on agar slants at 4° C. and sub-cultured on fresh agar plates containing ATCC-recommended media. Strains were cultured in liquid media 16 h prior to any antimicrobial screen. BD BBL™ Mueller-Hinton II broth (Fisher Scientific, Hampton NH) was used for MIC determinations.
as §1

[11] = system: S. aureus (ATCC 25913); experiment: as above; type: cell-based, Staphylococcus aureus; settings: for MIC50: Staphylococcus aureus, ATCC25913
Source text: as §3, §1

[12] = system: VRE, vancomycin-resistant E. faecalis (ATCC 51299); experiment: as above; type: cell-based, Enterococcus faecalis; settings: for MIC50: Enterococcus
Source text: as §3, §1

[13] = system: Enterococcus faecalis (ATCC 29212); experiment: as above; type: cell-based; settings: for MIC50: Enterococcus faecalis, ATCC29212, read-out: MIC50 E. Faecalis
Source text: as §3, §1

[14] = system: gram-positive bacteria, such as MRSA; settings: against gram-positive bacteria; cited from earlier work

Molecule: CC1(C)S[C@@H]2[C@H](NC(=O)[C@H](N)c3ccccc3)C(=O)N2[C@H]1C(=O)O [Ampicillin, ampicillin, reference compound]
- inhibition of peptidoglycan synthesis (FDAA incorporation) [1]: inhibit peptidoglycan synthesis

Molecule: NC(=O)c1c(F)ccc(OCc2nc3cc(Cl)cnc3s2)c1F [PC190723, reference compound]
- cell lengthening ([2]; 5 μg/mL (10×MIC)): Cell lengthening was observed
- cell lengthening phenotype [2]: produces the expected cell lengthening phenotype
- cell lengthening phenotype ([2]; listed as PC1907723): leads to expected cell lengthening
- inhibition of peptidoglycan synthesis (FDAA incorporation) [1]: does not
- inhibition of FDAA incorporation ([1]; up to 10×MIC): minimal inhibition of FDAAs incorporation
- localization of FtsZ [3]: dislocation but retention of FtsZ

Molecule: COc1cc2cc(OC)c1Oc1cc(c(O)cc1Cl)C/C=C\Cc1cc(O)cc(O)c1Oc1ccc(O)c(c1Cl)C/C=C(/Cl)C2 [VU0848354]
- cell lengthening phenotype [2]: neither VU0848355 and VU0848354 replicates the cell lengthening phenotype
- potency in inhibiting bacterial growth relative to natural C-ring isomers VU0849855 and VU0848355 [4]: approximately two-fold
- growth inhibition, agar diffusion [5]: inhibited growth of S. aureus
- inhibition of peptidoglycan synthesis (FDAA incorporation) [1]: inhibit peptidoglycan synthesis; also recorded: inhibited both lateral and septal peptidoglycan synthesis
- IC50 ([6]; S. aureus FtsZ biochemical assay, read-out: IC50 GTPase-FtsZ inhibition): > 250 µM
- IC50 [7]: < 1 µM
- localization of FtsZ, FtsA and PBP2B [3]: displace FtsZ/A and penicillin binding protein PBP2B; also recorded: unique dispersion of FtsZ, FtsA and PBP2B
- cell elongation [8]: did not elongate

Molecule: COc1cc2cc(OC)c1Oc1cc(c(O)cc1Cl)C/C=C\Cc1cc(O)cc(O)c1Oc1cc(c(O)cc1Cl)C/C=C(/Cl)C2 [VU0848355]
- cell lengthening phenotype [2]: neither VU0848355 and VU0848354 replicates the cell lengthening phenotype
- growth inhibition, agar diffusion [5]: inhibited growth of S. aureus
- inhibition of peptidoglycan synthesis (FDAA incorporation) [1]: inhibit peptidoglycan synthesis; also recorded: inhibited both lateral and septal peptidoglycan synthesis
- IC50 [6]: > 250 µM
- IC50 [7]: < 1 µM
- localization of FtsZ, FtsA and PBP2B [3]: displace FtsZ/A and penicillin binding protein PBP2B; also recorded: unique dispersion of FtsZ, FtsA and PBP2B

Molecule: Oc1cc(O)c2c(c1)C/C=C\Cc1cc(c(Cl)cc1O)Oc1c(O)cc(cc1O)C/C(Cl)=C\Cc1c(O)ccc(c1Cl)O2 [VU0849838, iso-9-dechlorochrysophaentin A]
- MIC50 [9]: 2 µg/mL (≈ 3.11 µM)
- cell lengthening ([2]; up to 20 μM (10×MIC)): did not affect cell lengthening
- potency in inhibiting bacterial growth relative to natural C-ring isomers VU0849855 and VU0848355 [4]: approximately two-fold
- growth inhibition (MIC) relative to natural chrysophaentin A ([4]; S. aureus, MRSA and E. faecalis): approximately two-fold
- MIC50 [10]: 1.1 µg/mL (≈ 1.71 µM)
- MIC50 [11]: 1.1 µg/mL (≈ 1.71 µM)
- inhibition of FDAA incorporation ([1]; 10 μM (5×MIC)): inhibited incorporation of FDAAs
- MIC50 [12]: 2.2 µg/mL (≈ 3.42 µM)
- localization of fluorescently labeled FtsZ (mNeonG) [3]: complete disassociation of FtsZ
- localization of FtsZ [3]: lead to dislocation of FtsZ
- MIC50 [13]: 0.3 µg/mL (≈ 0.466 µM)

Molecule: Oc1cc(O)c2c(c1)C/C=C\Cc1cc(c(Cl)cc1O)Oc1c(O)cc(cc1O)C/C(Cl)=C\Cc1cc(c(Cl)cc1O)O2 [VU0849855, 9-dechlorochrysophaentin A]
- MIC50 [9]: 4 µg/mL (≈ 6.21 µM)
- cell lengthening ([2]; up to 20 μM (10×MIC)): did not affect cell lengthening
- MIC50 [10]: 2.5 µg/mL (≈ 3.88 µM)
- MIC50 [11]: 2.5 µg/mL (≈ 3.88 µM)
- inhibition of FDAA incorporation ([1]; 10 μM (5×MIC)): inhibited incorporation of FDAAs
- MIC50 [12]: 5 µg/mL (≈ 7.77 µM)
- localization of fluorescently labeled FtsZ (mNeonG) [3]: complete disassociation of FtsZ
- localization of FtsZ [3]: lead to dislocation of FtsZ
- MIC50 [13]: 2.5 µg/mL (≈ 3.88 µM)

Molecule: chrysophaentin A [reference compound]
- MIC50 [14]: 1 to 4 µM
- MIC50 MRSA [10]: 2 µg/mL
- MIC50 S. Aureus [11]: 2 µg/mL
- MIC50 VRE [12]: 2 µg/mL
- localization of FtsZ [3]: leads to dispersion of FtsZ; also recorded: replicated the FtsZ dispersion phenotype
- localization of FtsZ, FtsA and PBP2B [3]: led to dispersion of the septal peptidoglycan synthesis machinery
- MIC50 E. Faecalis [13]: 2 µg/mL
